# From PubChem BioAssay (NCI)
# Values joined by “and” are separate entries in the source; they are usually repeats but may differ in a detail not shown here. Equal values may be shown once.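 All cell lines were grown in 96-well plates and treated with compound for 48 hours. GI50 marks 50% less growth. Definition used: TGI = concentration required for complete inhibition of growth.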
# Key:
# Test in all cases: NCI tumour cell line growth inhibition, 48 h
# HOP-62 NSCLC = system: HOP-62 NSCLC
# SK-MEL-5 melanoma = system: SK-MEL-5 melanoma
# U251 CNS = system: U251 CNS
# SK-OV-3 ovarian = system: SK-OV-3 ovarian
# NCI-H23 lung = system: NCI-H23 lung
# HCC-2998 colon = system: HCC-2998 colon
# NCI/ADR-RES ovarian = system: NCI/ADR-RES ovarian
# HCT-116 colon = system: HCT-116 colon
# IGROV1 ovarian = system: IGROV1 ovarian
# A498 renal = system: A498 renal
# MCF7 breast = system: MCF7 breast
# SK-MEL-2 melanoma = system: SK-MEL-2 melanoma
# XF 498 CNS = system: XF 498 CNS
# SF-539 CNS = system: SF-539 CNS
# EKVX NSCLC = system: EKVX NSCLC
# NCI-H522 lung = system: NCI-H522 lung
# NCI-H460 lung = system: NCI-H460 lung
# SN12C renal = system: SN12C renal
# SNB-78 CNS = system: SNB-78 CNS
# MALME-3M melanoma = system: MALME-3M melanoma
# CCRF-CEM leukemia = system: CCRF-CEM leukemia
# HL-60(TB) leukemia = system: HL-60(TB) leukemia
# OVCAR-3 ovarian = system: OVCAR-3 ovarian
# HOP-18 NSCLC = system: HOP-18 NSCLC
# KM12 colon = system: KM12 colon
# DMS 273 small cell lung = system: DMS 273 small cell lung
# P388/ADR leukemia = system: P388/ADR leukemia
# MOLT-4 leukemia = system: MOLT-4 leukemia
# OVCAR-4 ovarian = system: OVCAR-4 ovarian
# HT29 colon = system: HT29 colon
# KM20L2 colon = system: KM20L2 colon
# SN12K1 renal = system: SN12K1 renal
# HCT-15 colon = system: HCT-15 colon
# OVCAR-8 ovarian = system: OVCAR-8 ovarian
# SNB-19 CNS = system: SNB-19 CNS
# COLO 205 colon = system: COLO 205 colon
# UACC-257 melanoma = system: UACC-257 melanoma
# RPMI-8226 leukemia = system: RPMI-8226 leukemia
# UO-31 renal = system: UO-31 renal
# P388 leukemia = system: P388 leukemia
# SF-295 CNS = system: SF-295 CNS
# K-562 leukemia = system: K-562 leukemia
# DLD-1 colon = system: DLD-1 colon
# SF-268 CNS = system: SF-268 CNS
# HOP-92 NSCLC = system: HOP-92 NSCLC
# OVCAR-5 ovarian = system: OVCAR-5 ovarian
# SNB-75 CNS = system: SNB-75 CNS
# UACC-62 melanoma = system: UACC-62 melanoma
# M19-MEL melanoma = system: M19-MEL melanoma
# NCI-H226 lung = system: NCI-H226 lung
# DMS 114 small cell lung = system: DMS 114 small cell lung
# A549 NSCLC = system: A549 NSCLC
# LOX IMVI melanoma = system: LOX IMVI melanoma
# RXF 393 renal = system: RXF 393 renal
# SK-MEL-28 melanoma = system: SK-MEL-28 melanoma
# SW-620 colon = system: SW-620 colon
# T-47D breast = system: T-47D breast
# MDA-MB-231 breast = system: MDA-MB-231 breast
# 786-0 renal = system: 786-0 renal
# MDA-MB-435 = system: MDA-MB-435
# PC-3 prostate = system: PC-3 prostate
# SR leukemia = system: SR leukemia
# MDA-N = system: MDA-N
# DU-145 prostate = system: DU-145 prostate
# M14 melanoma = system: M14 melanoma
# CAKI-1 renal = system: CAKI-1 renal
# BT-549 breast = system: BT-549 breast
# ACHN renal = system: ACHN renal
# TK-10 renal = system: TK-10 renal
structure (smiles),measurement,setting,value
Cc1c2c(cc3c1[nH]c1ccccc13)C(c1ccc(Cl)cc1)=NCC2,TGI,HOP-62 NSCLC,11.2 µM
same,TGI,SK-MEL-5 melanoma,3.83 µM
same,TGI,U251 CNS,5.7 µM
same,TGI,SK-OV-3 ovarian,9.23 µM
same,TGI,NCI-H23 lung,2.98 µM
same,TGI,HCC-2998 colon,10.7 µM
same,TGI,NCI/ADR-RES ovarian,1.39 µM
same,TGI,HCT-116 colon,12.7 µM
same,TGI,IGROV1 ovarian,24.1 µM
same,TGI,A498 renal,10.2 µM
same,TGI,MCF7 breast,7.32 µM
same,TGI,SK-MEL-2 melanoma,7.9 µM
same,TGI,XF 498 CNS,0.0949 µM
same,TGI,SF-539 CNS,2.53 µM
same,TGI,EKVX NSCLC,35.1 µM
same,TGI,NCI-H522 lung,4.45 µM
same,TGI,NCI-H460 lung,1.33 µM
same,TGI,SN12C renal,3.46 µM
same,TGI,SNB-78 CNS,27.1 µM
same,TGI,MALME-3M melanoma,55.9 µM
same,TGI,CCRF-CEM leukemia,8.54 µM
same,TGI,HL-60(TB) leukemia,0.717 µM
same,TGI,OVCAR-3 ovarian,1.78 µM
same,TGI,HOP-18 NSCLC,10.6 µM
same,TGI,KM12 colon,18.2 µM
same,TGI,DMS 273 small cell lung,2.62 µM
same,TGI,P388/ADR leukemia,18.4 µM
same,TGI,MOLT-4 leukemia,1.79 µM
same,TGI,OVCAR-4 ovarian,6.49 µM
same,TGI,HT29 colon,0.687 µM
same,TGI,KM20L2 colon,0.809 µM
same,TGI,SN12K1 renal,0.829 µM
same,TGI,HCT-15 colon,9.89 µM
same,TGI,OVCAR-8 ovarian,7.14 µM
same,TGI,SNB-19 CNS,1.72 µM
same,TGI,COLO 205 colon,13.2 µM
same,TGI,UACC-257 melanoma,43.9 µM
same,TGI,RPMI-8226 leukemia,8.23 µM
same,TGI,UO-31 renal,8.99 µM
same,TGI,P388 leukemia,1.47 µM
same,TGI,SF-295 CNS,0.718 µM
same,TGI,K-562 leukemia,8.87 µM
same,TGI,DLD-1 colon,19 µM
same,TGI,SF-268 CNS,22 µM
same,TGI,HOP-92 NSCLC,30.8 µM
same,TGI,OVCAR-5 ovarian,33.7 µM
same,TGI,SNB-75 CNS,1.42 µM
same,TGI,UACC-62 melanoma,17.6 µM
same,TGI,M19-MEL melanoma,88.8 µM
same,TGI,NCI-H226 lung,6.82 µM
same,TGI,DMS 114 small cell lung,3.87 µM
same,TGI,A549 NSCLC,11.8 µM
same,TGI,LOX IMVI melanoma,11.4 µM
same,TGI,RXF 393 renal,2.45 µM
same,TGI,SK-MEL-28 melanoma,61.2 µM
same,TGI,SW-620 colon,19 µM
CCCCCCCCCCS(=O)CC(CO)NC(=O)/C=C/c1c(C)[nH]c(=O)[nH]c1=O (stereo unspecified),GI50,HOP-62 NSCLC,4.8 µM
same,TGI,HOP-62 NSCLC,6.49 µM and 18.4 µM
same,GI50,SK-MEL-5 melanoma,18.2 µM
same,TGI,SK-MEL-5 melanoma,4.52 µM and 40.4 µM
same,TGI,T-47D breast,39.6 µM
same,GI50,U251 CNS,17.4 µM
same,TGI,MDA-MB-231 breast,15.9 µM
same,GI50,SK-OV-3 ovarian,11 µM
same,TGI,SK-OV-3 ovarian,12.7 µM and 32.1 µM
same,GI50,NCI-H23 lung,29.5 µM
same,TGI,786-0 renal,27 µM
same,GI50,HCC-2998 colon,3.26 µM
same,TGI,HCC-2998 colon,1.9 µM and 17.5 µM
same,GI50,NCI/ADR-RES ovarian,17.2 µM
same,TGI,NCI/ADR-RES ovarian,37.9 µM and 34.2 µM
same,TGI,HCT-116 colon,5.61 µM and 31.9 µM
same,GI50,IGROV1 ovarian,2.77 µM
same,TGI,IGROV1 ovarian,13.5 µM and 8.81 µM
same,GI50,A498 renal,23.4 µM
same,TGI,A498 renal,7.98 µM and 62.1 µM
same,GI50,MCF7 breast,23.4 µM
same,TGI,MDA-MB-435,49.1 µM
same,GI50,SK-MEL-2 melanoma,25.8 µM
same,TGI,PC-3 prostate,7.79 µM
same,TGI,XF 498 CNS,0.229 µM
same,TGI,SR leukemia,> 100 µM
same,GI50,SF-539 CNS,14.9 µM
same,GI50,EKVX NSCLC,28.3 µM
same,TGI,MDA-N,57.5 µM
same,GI50,NCI-H522 lung,10.6 µM
same,TGI,NCI-H460 lung,1.97 µM and 15.3 µM
same,GI50,SN12C renal,10.3 µM
same,TGI,SNB-78 CNS,5.65 µM
same,GI50,MALME-3M melanoma,23.9 µM
same,GI50,CCRF-CEM leukemia,4.08 µM
same,TGI,CCRF-CEM leukemia,2.41 µM and 13.2 µM
same,TGI,HL-60(TB) leukemia,4.16 µM
same,TGI,HOP-18 NSCLC,16.2 µM
same,TGI,KM12 colon,3.27 µM
same,TGI,DMS 273 small cell lung,4.04 µM
same,TGI,P388/ADR leukemia,24.5 µM
same,GI50,MOLT-4 leukemia,8.74 µM
same,TGI,MOLT-4 leukemia,4.68 µM and 45.5 µM
same,TGI,OVCAR-4 ovarian,1.88 µM
same,GI50,HT29 colon,6.27 µM
same,TGI,HT29 colon,22.7 µM and 19.9 µM
same,TGI,KM20L2 colon,6 µM
same,TGI,SN12K1 renal,3.9 µM
same,TGI,DU-145 prostate,> 100 µM
same,GI50,HCT-15 colon,4.4 µM
same,TGI,HCT-15 colon,14.8 µM and 21.5 µM
same,TGI,SNB-19 CNS,2.64 µM and 25.7 µM
same,GI50,COLO 205 colon,2.96 µM
same,GI50,UACC-257 melanoma,20.4 µM
same,TGI,UACC-257 melanoma,9.58 µM and 43.7 µM
same,GI50,RPMI-8226 leukemia,10.6 µM
same,TGI,M14 melanoma,24.4 µM
same,GI50,UO-31 renal,17.2 µM
same,TGI,UO-31 renal,8.68 µM and 33.8 µM
same,TGI,CAKI-1 renal,4.2 µM and 31.1 µM
same,TGI,P388 leukemia,1.62 µM
same,GI50,SF-295 CNS,1.15 µM and 7.04 µM
same,TGI,SF-295 CNS,8.88 µM and 22.8 µM
same,TGI,BT-549 breast,25.1 µM
same,GI50,K-562 leukemia,26.4 µM
same,TGI,DLD-1 colon,5.28 µM
same,TGI,SF-268 CNS,2.01 µM
same,GI50,HOP-92 NSCLC,10.5 µM
same,TGI,ACHN renal,28.5 µM
same,TGI,TK-10 renal,4.02 µM
same,GI50,OVCAR-5 ovarian,2.86 µM
same,TGI,OVCAR-5 ovarian,11.6 µM and 10.2 µM
same,TGI,SNB-75 CNS,1.76 µM
same,GI50,UACC-62 melanoma,9.8 µM
same,TGI,UACC-62 melanoma,4.08 µM and 24.5 µM
same,TGI,M19-MEL melanoma,4.3 µM
same,TGI,NCI-H226 lung,4.21 µM
same,TGI,DMS 114 small cell lung,1.42 µM
same,GI50,A549 NSCLC,14.2 µM
same,TGI,A549 NSCLC,35.3 µM and 31.8 µM
same,GI50,LOX IMVI melanoma,13.5 µM
same,TGI,LOX IMVI melanoma,10.2 µM and 27.1 µM
same,GI50,RXF 393 renal,10 µM
same,GI50,SK-MEL-28 melanoma,43.9 µM
same,GI50,SW-620 colon,15.7 µM
